Assays:
delF508-CFTR-HRP = target: T1, delF508-CFTR-HRP (Homo sapiens, UniProt P13569, DEL508-508); test: Measurement of delF508-CFTR-HRP surface expression in CFBE41o- cells (HRP luminescence); assay type: cell-based; details: for Emax: CFBE41o-, read-out: DelF508-CFTR-HRP Amax %; for EC50: mean of at least two replicates;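 as to DelF508-CFTR-HRP Amax %: percent efficacy relative to a reference CFTR corrector compound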
T1 construct: expressed in transfected cells
Outline: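 EC50 derived by logistic regression of triplicate surface-HRP luminescence, plate-normalized to the lowest-concentration median. Doxycycline (500 ng/mL, 48 h) induced delF508-CFTR-HRP in CFBE41o- cells; compounds then applied 24 h at 37° C, 10 μM top, 3-fold over 10 points.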

delF508-CFTR = target: T2, delF508-CFTR (Homo sapiens, UniProt P13569, DEL508-508); test: delF508-CFTR functional activity in primary human bronchial epithelial cells (HBECs), Multi-Transepithelial Clamp Circuit (MTECC-24) assay, equivalent short circuit current; assay type: cell-based; details: primary CF HBECs; for MTECC24 CFHBEC-Amax %: relative to reference combination 2 μM 3-(6-(1-(2,2-difluorobenzo[d][1,3]dioxol-5-yl)cyclopropane-1-carboxamido)-3-methylpyridin-2-yl)benzoic acid (24 h) + 0.5 μM N-(2,4-di-tert-butyl-5-hydroxyphenyl)-4-oxo-1,4-dihydroquinoline-3-carboxamide; for EC50: test compound added 24 h before assay, potentiator (S)-3-amino-6-methoxy-N-(3,3,3-trifluoro-2-hydroxy-2-methylpropyl)-5-(trifluoromethyl)picolinamide present at assay, mean of at least two replicates, read-out: MTECC24 CFHBEC-EC50
T2 construct: functional activity of the CFTR channel (Chloride ion transport) in patient derived primary human bronchial epithelial cells; host or cells: patient-derived primary human bronchial epithelial cells (HBECs), delF508-CFTR
T2 sequence (P13569 with tags, fused parts or gaps DEL508-508): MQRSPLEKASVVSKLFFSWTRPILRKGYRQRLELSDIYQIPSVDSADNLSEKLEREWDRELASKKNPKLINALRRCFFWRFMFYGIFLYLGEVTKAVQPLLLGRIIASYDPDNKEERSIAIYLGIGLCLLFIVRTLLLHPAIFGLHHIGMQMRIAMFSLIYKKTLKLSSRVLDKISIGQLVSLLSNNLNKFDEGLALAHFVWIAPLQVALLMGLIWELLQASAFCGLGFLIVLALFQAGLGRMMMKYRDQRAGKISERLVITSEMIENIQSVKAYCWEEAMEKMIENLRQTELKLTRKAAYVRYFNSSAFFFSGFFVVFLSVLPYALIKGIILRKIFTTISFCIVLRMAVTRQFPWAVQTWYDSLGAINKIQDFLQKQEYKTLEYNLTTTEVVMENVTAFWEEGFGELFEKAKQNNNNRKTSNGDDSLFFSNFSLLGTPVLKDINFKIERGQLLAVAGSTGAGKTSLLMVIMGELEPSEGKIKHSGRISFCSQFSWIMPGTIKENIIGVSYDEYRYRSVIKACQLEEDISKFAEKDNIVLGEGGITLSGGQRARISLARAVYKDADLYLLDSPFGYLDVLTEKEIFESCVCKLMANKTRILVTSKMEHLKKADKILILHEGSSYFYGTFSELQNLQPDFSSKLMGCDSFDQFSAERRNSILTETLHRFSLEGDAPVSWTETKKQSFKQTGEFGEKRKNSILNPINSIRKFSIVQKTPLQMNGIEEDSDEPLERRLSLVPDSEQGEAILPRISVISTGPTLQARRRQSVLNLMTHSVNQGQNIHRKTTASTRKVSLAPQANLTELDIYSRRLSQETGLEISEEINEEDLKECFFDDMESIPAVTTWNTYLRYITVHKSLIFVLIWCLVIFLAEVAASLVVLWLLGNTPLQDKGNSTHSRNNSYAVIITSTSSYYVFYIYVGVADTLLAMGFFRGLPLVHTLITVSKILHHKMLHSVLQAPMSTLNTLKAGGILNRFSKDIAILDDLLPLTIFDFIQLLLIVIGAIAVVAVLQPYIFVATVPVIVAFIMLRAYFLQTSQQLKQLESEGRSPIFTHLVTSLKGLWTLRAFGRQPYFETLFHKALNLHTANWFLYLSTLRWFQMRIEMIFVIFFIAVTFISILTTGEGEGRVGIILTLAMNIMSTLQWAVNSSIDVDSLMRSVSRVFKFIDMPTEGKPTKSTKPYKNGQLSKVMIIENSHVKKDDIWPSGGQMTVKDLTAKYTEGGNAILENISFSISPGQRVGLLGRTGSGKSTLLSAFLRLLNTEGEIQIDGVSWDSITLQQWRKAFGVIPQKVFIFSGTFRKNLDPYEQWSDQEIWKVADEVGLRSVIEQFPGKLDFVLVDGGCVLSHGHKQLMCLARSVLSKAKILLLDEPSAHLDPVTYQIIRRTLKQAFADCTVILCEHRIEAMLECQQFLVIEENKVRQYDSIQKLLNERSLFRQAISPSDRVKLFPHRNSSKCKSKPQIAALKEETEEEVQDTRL
From the text: Measurement of delF508-CFTR Functional Activity in Primary Human Bronchial Epithelial Cells (HBECs) Using Multi-Transepithelial Clamp Circuit (MTECC-24) Assay
This assay measures the functional activity of the CFTR channel (Chloride ion transport) in patient derived primary human bronchial epithelial cells with forskolin activation and in the presence of the CFTR corrector wherein the corrector is a compound of the invention and the potentiator is (S)-3-amino-6-methoxy-N-(3,3,3-trifluoro-2-hydroxy-2-methylpropyl)-5-(trifluoromethyl)picolinamide.
Primary human delF508-CFTR bronchial epithelial cells were purchased from Asterand and cultured according to previously established methods (Fulcher et al. (2005) Methods Mol Med 107: 183-206). Briefly, vendor supplied cells were rapidly defrosted and added to a T175 flask in 50 mL growth media (Lonza BEBM media with Lonza BEGM singlequots). Media was replaced after 24 h and then cells were fed every other day until cells were 80-90% confluent, at which point cells were cryopreserved. These P1 vials were thawed at 37° C. as needed and added to T175 flasks in 50 mL growth media at 5×10^5 cells/flask. Media was replaced after 24 h, and then cells were fed every other day until 80-90% confluent. Cells were lifted with 5 mL Accutase at 37° C. for 5 minutes, centrifuged at 1000 rpms for 5 min (300 g), and resuspended in differentiation media (50% BEBM in DMEM, BEGM singlequots, all trans retinoic acid (5×10·8M)). Cells were then counted and cell suspension was added to collagen coated inserts at 3×10^4 cells/insert in 0.15 mL with 0.5 mL differentiation media on the basolateral side.
Apical and basolateral media were replaced on alternate days, and following day 7 (or when confluent plus 2 days), air liquid interface was established for approximately two weeks by removal of apical media. One day prior to use on the MTECC24 system (EP-Devices, EP Design, Belgium), 0.15 mL of warmed (37° C.) PBS was added to the apical surface of the cultures and returned to humidifier (37° C., 5% CO2 incubator) for 30 min before aspirating the apical surface to remove any mucus.
Compound treatments were then prepared. Compound dilutions, typically a 10 point concentration response with 1 in 3 dilution steps, were made in 100% DMSO before dilution 1 in 1000 into differentiation medium with a final DMSO concentration of 0.1% or 0.2% for the study. Compound containing medium was then transferred into the wells of a 24 well plate at 0.5 mL per well and warmed for 30 min in a 37° C. incubator prior to transferring washed inserts into the compound containing plates. Cells were incubated in compound containing medium (basolateral only) for 24 h prior to measurement in the MTECC24 system.
Following 24 hr treatment, compound dilutions were prepared again, diluted 1 in 1000 into 37° C. assay medium (F-12 Coon's modified, 20 mM HEPES pH7.4 with TRIS Base, No FCS or bicarbonate). Cells which were treated for 24 h with test compound were then transferred into plates containing 0.75 mL compound treatment in assay medium (basolateral) and 0.25 mL of the compound containing assay medium was added to the apical surface. The plates were then transferred to the heated plate compartments of the MTECC24 system for 45 min prior to measurements (this can also be done in a non-CO2 37° C. humidified incubator). Basolateral temperature should not exceed 36.5° C. and apical temperature should be approximately 35.5° C.
Modulators were added sequentially as follows while the MTECC24 instrument recorded the equivalent short circuit current (Ieq)
Prior to dilution into F-12 medium the stocks are as follows: Amiloride stock is 10 mM in H2O
Forskolin Stock is 10 mM in 100% DMSO
(S)-3-amino-6-methoxy-N-(3,3,3-trifluoro-2-hydroxy-2-methylpropyl)-5-(trifluoromethyl)picolinamide is 0.5 mM stock in 100% DMSO INH-172 (4-[[4-Oxo-2-thioxo-3-[3-trifluoromethyl)phenyl]-5-thiazolidinylidene]methyl]benzoic acid) stock is 30 mM in 100% DMSO […]

T1 sequence (P13569 with tags, fused parts or gaps DEL508-508): as above

| Emax (delF508-CFTR-HRP) | EC50 (delF508-CFTR-HRP) | MTECC24 CFHBEC-Amax % (delF508-CFTR) | EC50 (delF508-CFTR) | DelF508-CFTR-HRP Amax % (delF508-CFTR-HRP) | SMILES |
| --- | --- | --- | --- | --- | --- |
| 628% | 1270 nM | 93% | 4 nM | – | Cc1ccc(C2CCCCC2)c(OC2(C(=O)NS(=O)(=O)c3cccc(N4CC(C)(NC(=O)OC(C)(C)C)C4)n3)CC2)c1 [Example 2-50, Tert-butyl (1-(6-(N-(1-(2-cyclohexyl-5-methylphenoxy)cyclopropane-1-carbonyl)sulfamoyl)pyridin-2-yl)-3-methylazetidin-3-yl)carbamate] |
| 202% | 3230 nM | 54% | 297 nM | – | Cc1ccc(C2CCCOC2)c(OC2(C(=O)NS(=O)(=O)c3cccc(N4CCC[C@@H](CO)C4)n3)CC2)c1 (stereo partly drawn) [Example 4-20, N-((6-((R)-3-(hydroxymethyl)piperidin-1-yl)pyridin-2-yl)sulfonyl)-1-(5-methyl-2-(tetrahydro-2H-pyran-3-yl)phenoxy)cyclopropane-1-carboxamide] |
| 500% | 1410 nM | 89% | 6 nM | – | Cc1ccc(C2CCCCC2)c(OC2(C(=O)NS(=O)(=O)c3cccc(N4CCOC[C@H]4C)n3)CC2)c1 [Example 2-26, (R)-1-(2-Cyclohexyl-5-methylphenoxy)-N-((6-(3-methylmorpholino)pyridin-2-yl)sulfonyl)cyclopropanecarboxamide] |
| – | 900 nM | 191.0% | 176 nM | 819.2% | Cc1ccc(C2CCC(C)(C)OC2)c(OC2(C(=O)NS(=O)(=O)c3cccc(N4CCC(O)(c5ccc(Cl)cc5)CC4)n3)CC2)c1 (single isomer, unassigned) [Example 11-1-2, N-((6-(4-(4-chlorophenyl)-4-hydroxypiperidin-1-yl)pyridin-2-yl)sulfonyl)-1-(2-(6,6-dimethyltetrahydro-2H-pyran-3-yl)-5-methylphenoxy)cyclopropane-1-carboxamide] |
| 196% | 2150 nM | 43% | 50 nM | – | Cc1ccc(-c2ccccc2C(F)(F)F)c(OC2(C(=O)NS(=O)(=O)c3cccc(N4CC[C@H](O)C4)n3)CC2)c1 [Example 5-14, (S)—N-((6-(3-Hydroxypyrrolidin-1-yl)pyridin-2-yl)sulfonyl)-1-((4-methyl-2′-(trifluoromethyl)-[1,1′-biphenyl]-2-yl)oxy)cyclopropane-1-carboxamide] |
| 594% | 2420 nM | 161.2% | 749 nM | – | O=C(NS(=O)(=O)c1cccc(N2CC[C@H](O)C2)n1)C1(Oc2cc(Cl)ccc2NC2CCC(C(F)(F)F)CC2)CC1 (stereo partly drawn) [Example 9-19, (S)-1-(5-Chloro-2-((4-(trifluoromethyl)cyclohexyl)amino)phenoxy)-N-((6-(3-hydroxypyrrolidin-1-yl)pyridin-2-yl)sulfonyl)cyclopropanecarboxamide] |
| 716% | 540 nM | 60% | 63 nM | – | Cc1ccc(C2CCCCC2)c(OC2(C(=O)NS(=O)(=O)c3cccc(N4CCC(C)(NC(=O)OC(C)(C)C)CC4)n3)CC2)c1 [Example 2-8, Tert-butyl (1-(6-(N-(1-(2-cyclohexyl-5-methylphenoxy)cyclopropanecarbonyl)sulfamoyl)pyridin-2-yl)-4-methylpiperidin-4-yl)carbamate] |
| 313% | 1580 nM | 62% | 99 nM | – | O=C(NS(=O)(=O)c1cccc(N2CC[C@H](O)C2)n1)C1(Oc2cc(Cl)ccc2-c2cccc(C(F)(F)F)c2)CC1 [Example 5-2, (S)-1-((4-Chloro-3′-(trifluoromethyl)-[1,1′-biphenyl]-2-yl)oxy)-N-((6-(3-hydroxypyrrolidin-1-yl)pyridin-2-yl)sulfonyl)cyclopropane-1-carboxamide] |
| 512% | 640 nM | 91% | 13 nM | – | Cc1ccc(C2CCCCC2)c(OC2(C(=O)NS(=O)(=O)c3cccc(N4CCN(c5ccc(F)cc5)CC4)n3)CC2)c1 [Example 2-55, 1-(2-Cyclohexyl-5-methylphenoxy)-N-((6-(4-(4-fluorophenyl)piperazin-1-yl)pyridin-2-yl)sulfonyl)cyclopropane-1-carboxamide] |
| 354% | 2540 nM | 122% | 198 nM | – | Cc1ccc(C2CCCCC2)c(OC2(C(=O)NS(=O)(=O)c3cccc(N4CCC5(CCCC5N)CC4)n3)CC2)c1 (centres unmarked) [Example 2-20, N-((6-(1-Amino-8-azaspiro[4.5]decan-8-yl)pyridin-2-yl)sulfonyl)-1-(2-cyclohexyl-5-methylphenoxy)cyclopropanecarboxamide] |
| 258% | 3410 nM | 51% | 35 nM | – | COc1ccc(C2CCC(F)(F)CC2)c(OC2(C(=O)NS(=O)(=O)c3cccc(N4CCC[C@H](CO)C4)n3)CC2)c1 [Example 3-7, (S)-1-(2-(4,4-Difluorocyclohexyl)-5-methoxyphenoxy)-N-((6-(3-(hydroxymethyl)piperidin-1-yl)pyridin-2-yl)sulfonyl)cyclopropane-1-carboxamide] |
| 374% | 3280 nM | 71% | 12 nM | – | Cc1ccc(CC(C)C)c(OC2(C(=O)NS(=O)(=O)c3cccc(NC[C@@H](C)O)n3)CC2)c1 [Example 4-10, (R)-N-((6-((2-Hydroxypropyl)amino)pyridin-2-yl)sulfonyl)-1-(2-isobutyl-5-methylphenoxy)cyclopropane-1-carboxamide] |
| 580% | 1640 nM | 133.4% | 396 nM | – | Cc1ccc(N2CCC3(CC2)CC3)c(OC2(C(=O)NS(=O)(=O)c3cccc(N4CC[C@H](O)C4)n3)CC2)c1 [Example 9-11, (S)—N-((6-(3-Hydroxypyrrolidin-1-yl)pyridin-2-yl)sulfonyl)-1-(5-methyl-2-(6-azaspiro[2.5]octan-6-yl)phenoxy)cyclopropanecarboxamide] |
| 115% | 3100 nM | 66% | 35 nM | – | CC(C)Cc1ccc(Cl)cc1OC1(C(=O)NS(=O)(=O)c2cccc(NC[C@H](C)O)n2)CC1 [Example 4-11, (S)-1-(5-Chloro-2-isobutylphenoxy)-N-((6-((2-hydroxypropyl)amino)pyridin-2-yl)sulfonyl)cyclopropane-1-carboxamide] |
